Experimental data reported in patent US8435980B2 (AbbVie Inc., priority 2009, dated 2013).

biological target: T1, Cdc7 (BEV coexpressed huCDC7/DBF4) (Homo sapiens, UniProt O00311); experiment: Cdc7 enzyme inhibition assay ([33P]ATP, biotinylated peptide substrate, FlashPlate); format: biochemical; settings: not given
T1 construct: made in house; host or cells: BEV (baculovirus expression vector) co-expression; insect cells are implied but no cell line is named
Description: Cdc7 (BEV coexpressed huCDC7/DBF4) is prepared internally. Cdc7 assays are conducted as follows with final concentrations as listed. […] Reactions are quenched after 1 hr by the addition of 90 μL stop buffer (50 mM EDTA, 2M NaCl). […] (Ki) for exemplary compounds.

T1 sequence (O00311 whole entry): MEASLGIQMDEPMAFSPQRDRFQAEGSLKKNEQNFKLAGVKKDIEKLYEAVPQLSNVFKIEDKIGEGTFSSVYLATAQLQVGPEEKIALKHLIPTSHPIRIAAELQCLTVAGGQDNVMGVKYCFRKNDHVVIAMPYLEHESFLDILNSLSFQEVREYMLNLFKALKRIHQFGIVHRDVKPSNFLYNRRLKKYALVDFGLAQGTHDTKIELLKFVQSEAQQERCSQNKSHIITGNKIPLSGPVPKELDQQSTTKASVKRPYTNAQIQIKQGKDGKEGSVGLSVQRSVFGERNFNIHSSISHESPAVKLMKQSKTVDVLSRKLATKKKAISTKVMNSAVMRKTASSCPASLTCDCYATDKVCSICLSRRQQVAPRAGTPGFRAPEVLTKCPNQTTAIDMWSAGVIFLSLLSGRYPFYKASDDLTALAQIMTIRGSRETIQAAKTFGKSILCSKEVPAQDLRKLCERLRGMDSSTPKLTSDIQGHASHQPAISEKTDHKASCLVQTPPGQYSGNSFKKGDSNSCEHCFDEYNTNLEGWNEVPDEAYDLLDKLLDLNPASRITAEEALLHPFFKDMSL
T1 sequence (Q9UBU7 whole entry partner): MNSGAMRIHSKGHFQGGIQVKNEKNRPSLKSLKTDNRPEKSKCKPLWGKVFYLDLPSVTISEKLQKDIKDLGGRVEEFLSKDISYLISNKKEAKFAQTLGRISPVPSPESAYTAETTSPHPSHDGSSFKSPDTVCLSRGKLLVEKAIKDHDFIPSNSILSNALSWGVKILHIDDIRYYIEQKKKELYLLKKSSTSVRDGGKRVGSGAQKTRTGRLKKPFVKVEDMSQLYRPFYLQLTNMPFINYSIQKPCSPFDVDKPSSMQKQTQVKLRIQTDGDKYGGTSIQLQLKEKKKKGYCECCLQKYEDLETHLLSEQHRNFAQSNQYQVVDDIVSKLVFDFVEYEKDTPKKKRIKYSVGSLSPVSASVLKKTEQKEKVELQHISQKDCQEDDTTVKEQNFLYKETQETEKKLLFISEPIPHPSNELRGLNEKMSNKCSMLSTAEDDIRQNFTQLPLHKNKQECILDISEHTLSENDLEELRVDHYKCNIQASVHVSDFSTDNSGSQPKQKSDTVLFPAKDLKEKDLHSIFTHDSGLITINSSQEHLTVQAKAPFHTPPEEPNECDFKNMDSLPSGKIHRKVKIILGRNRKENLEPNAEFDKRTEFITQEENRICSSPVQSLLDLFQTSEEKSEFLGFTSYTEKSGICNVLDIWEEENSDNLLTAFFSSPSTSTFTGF

| SMILES | Ki |
| --- | --- |
| Clc1cc(-c2c[nH]c3ncccc23)cc(NCC2CCCCO2)n1 (stereo not shown) [Example 32, 6-chloro-4-(1H-pyrrolo[2,3-b]pyridin-3-yl)-N-(tetrahydro-2H-pyran-2-ylmethyl)pyridin-2-amine] | 10 to 100 nM |
| NC1CCCCC1Nc1cc(-c2c[nH]c3ncccc23)cc(Cl)n1 (stereo not shown) [Example 17, N-[6-chloro-4-(1H-pyrrolo[2,3-b]pyridin-3-yl)pyridin-2-yl]cyclohexane-1,2-diamine] | < 10 nM |

same assay, conditions: Table 3; enzyme inhibition data (Ki)

| SMILES | Ki |
| --- | --- |
| COc1cnc2[nH]cc(-c3cc(Cl)nc(N[C@H]4CC[C@H](NC(=O)C5CC5)CC4)c3)c2c1 [Example 216, N-(trans-4-{[6-chloro-4-(5-methoxy-1H-pyrrolo[2,3-b]pyridin-3-yl)pyridin-2-yl]amino}cyclohexyl)cyclopropanecarboxamide] | < 10 nM |
| O=C(N[C@H]1CC[C@H](Nc2cc(-c3c[nH]c4ncccc34)cc(Cl)n2)CC1)C1CCN(CCO)CC1 [Example 367, N-(trans-4-{[6-chloro-4-(1H-pyrrolo[2,3-b]pyridin-3-yl)pyridin-2-yl]amino}cyclohexyl)-1-(2-hydroxyethyl)piperidine-4-carboxamide] | < 10 nM |
| O=C1CC[C@@H](C(=O)N[C@H]2CC[C@H](Nc3cc(-c4c[nH]c5ncccc45)cc(Cl)n3)CC2)N1 [Example 338, N-(trans-4-{[6-chloro-4-(1H-pyrrolo[2,3-b]pyridin-3-yl)pyridin-2-yl]amino}cyclohexyl)-5-oxo-L-prolinamide] | < 10 nM |
| CCNC(=O)NC1CCCC(Nc2cc(-c3c[nH]c4ncccc34)cc(Cl)n2)C1 (stereo not shown) [Example 79, 1-(3-{[6-chloro-4-(1H-pyrrolo[2,3-b]pyridin-3-yl)pyridin-2-yl]amino}cyclohexyl)-3-ethylurea] | < 10 nM |
| COc1ccc(CNc2cc(-c3c[nH]c4ncccc34)cc(Cl)n2)cc1OC [Example 414] | < 10 nM |
| Clc1cc(-c2c[nH]c3ncccc23)cc(NC2CCN(Cc3ccccc3)CC2)n1 [Example 402, N-(1-benzylpiperidin-4-yl)-6-chloro-4-(1H-pyrrolo[2,3-b]pyridin-3-yl)pyridin-2-amine] | < 10 nM |
| CCCCS(=O)(=O)NCCNc1cc(-c2c[nH]c3ncccc23)cc(Cl)n1 [Example 313, N-(2-{[6-chloro-4-(1H-pyrrolo[2,3-b]pyridin-3-yl)pyridin-2-yl]amino}ethyl)butane-1-sulfonamide] | < 10 nM |
| O=C(Cc1cc2ccccc2[nH]1)Nc1cc(-c2c[nH]c3ncccc23)cc(Cl)n1 [Example 320, N-[6-chloro-4-(1H-pyrrolo[2,3-b]pyridin-3-yl)pyridin-2-yl]-2-(1H-indol-2-yl)acetamide] | 10 to 100 nM |
| CN1CCC(C(=O)NC2CCCC(Nc3cc(-c4c[nH]c5ncccc45)cc(Cl)n3)C2)C1 (stereo not shown) [Example 346, N-(3-{[6-chloro-4-(1H-pyrrolo[2,3-b]pyridin-3-yl)pyridin-2-yl]amino}cyclohexyl)-1-methylpyrrolidine-3-carboxamide] | < 10 nM |
| Clc1cc(-c2c[nH]c3ncccc23)cc(NC2Cc3ccccc3C2)n1 [Example 404, 6-chloro-N-(2,3-dihydro-1H-inden-2-yl)-4-(1H-pyrrolo[2,3-b]pyridin-3-yl)pyridin-2-amine] | < 10 nM |
| COc1cnc2[nH]cc(-c3cc(Cl)nc(NC4CCC(C5CCN(C6CCC6)CC5)CC4)c3)c2c1 (stereo not shown) [Example 252, 6-chloro-N-[4-(1-cyclobutylpiperidin-4-yl)cyclohexyl]-4-(5-methoxy-1H-pyrrolo[2,3-b]pyridin-3-yl)pyridin-2-amine] | < 10 nM |
| CN1CCCC(C2CCC(Nc3cc(-c4c[nH]c5ncccc45)cc(Cl)n3)CC2)C1 (stereo not shown) [Example 371, 6-chloro-N-[4-(1-methylpiperidin-3-yl)cyclohexyl]-4-(1H-pyrrolo[2,3-b]pyridin-3-yl)pyridin-2-amine] | < 10 nM |
| Cc1noc(C)c1S(=O)(=O)NC1CCC(Nc2cc(-c3c[nH]c4ncccc34)cc(Cl)n2)CC1 (stereo not shown) [Example 283, N-(4-{[6-chloro-4-(1H-pyrrolo[2,3-b]pyridin-3-yl)pyridin-2-yl]amino}cyclohexyl)-3,5-dimethyl-1,2-oxazole-4-sulfonamide] | < 10 nM |
| Clc1cc(-c2c[nH]c3ncccc23)cc(NCC2CCCN(CC3CC3)C2)n1 (stereo not shown) [Example 318, 6-chloro-N-{[1-(cyclopropylmethyl)piperidin-3-yl]methyl}-4-(1H-pyrrolo[2,3-b]pyridin-3-yl)pyridin-2-amine] | 10 to 100 nM |
| Clc1cc(-c2c[nH]c3ncccc23)cc(NC2CCC(CC3CCC(NC4CCC4)CC3)CC2)n1 (stereo not shown) [Example 359, 6-chloro-N-(4-{[4-(cyclobutylamino)cyclohexyl]methyl}cyclohexyl)-4-(1H-pyrrolo[2,3-b]pyridin-3-yl)pyridin-2-amine] | < 10 nM |
| Clc1cc(-c2c[nH]c3ncccc23)cc(NC2CCCC(NCC3CCCNC3)C2)n1 (stereo not shown) [Example 72, N-[6-chloro-4-(1H-pyrrolo[2,3-b]pyridin-3-yl)pyridin-2-yl]-N′-(piperidin-3-ylmethyl)cyclohexane-1,3-diamine] | < 10 nM |

| SMILES | Ki |
| --- | --- |
| O=C(N[C@H]1CC[C@H](Nc2cc(-c3c[nH]c4ncccc34)cc(Cl)n2)CC1)C1CN(Cc2ccccc2)C1 [Example 381, 1-benzyl-N-(trans-4-{[6-chloro-4-(1H-pyrrolo[2,3-b]pyridin-3-yl)pyridin-2-yl]amino}cyclohexyl)azetidine-3-carboxamide] | < 10 nM |
| O=C1CC(C(=O)N[C@H]2CC[C@H](Nc3cc(-c4c[nH]c5ncccc45)cc(Cl)n3)CC2)CC(=O)N1 [Example 144, N-(trans-4-{[6-chloro-4-(1H-pyrrolo[2,3-b]pyridin-3-yl)pyridin-2-yl]amino}cyclohexyl)-2,6-dioxopiperidine-4-carboxamide] | < 10 nM |
| CN(C)C1CCC(CC2CCC(Nc3cc(-c4c[nH]c5ncccc45)cc(Cl)n3)CC2)CC1 (stereo not shown) [Example 155, 6-chloro-N-(4-{[4-(dimethylamino)cyclohexyl]methyl}cyclohexyl)-4-(1H-pyrrolo[2,3-b]pyridin-3-yl)pyridin-2-amine] | < 10 nM |
| CN1CCC(N[C@H]2CC[C@H](Nc3cc(-c4c[nH]c5ncccc45)cc(Cl)n3)CC2)CC1 [Example 148, trans-N-[6-chloro-4-(1H-pyrrolo[2,3-b]pyridin-3-yl)pyridin-2-yl]-N′-(1-methylpiperidin-4-yl)cyclohexane-1,4-diamine] | < 10 nM |
| COc1cnc2[nH]cc(-c3cc(Cl)nc(NC4CCC(CC5CCC(NC6CCC6)CC5)CC4)c3)c2c1 (stereo not shown) [Example 424, 6-chloro-N-(4-{[4-(cyclobutylamino)cyclohexyl]methyl}cyclohexyl)-4-(5-methoxy-1H-pyrrolo[2,3-b]pyridin-3-yl)pyridin-2-amine] | < 10 nM |
| O=C(NCCS(=O)(=O)N[C@H]1CC[C@H](Nc2cc(-c3c[nH]c4ncccc34)cc(Cl)n2)CC1)c1ccccc1 [Example 193, N-{2-[(trans-4-{[6-chloro-4-(1H-pyrrolo[2,3-b]pyridin-3-yl)pyridin-2-yl]amino}cyclohexyl)sulfamoyl]ethyl}benzamide] | < 10 nM |
| CCNC(=O)Nc1cnc2[nH]cc(-c3cc(Cl)nc(NC4CCCCC4)c3)c2c1 [Example 248, 1-{3-[2-chloro-6-(cyclohexylamino)pyridin-4-yl]-1H-pyrrolo[2,3-b]pyridin-5-yl}-3-ethylurea] | < 10 nM |
| CCCN1CCC(C(=O)NC2CCCC(Nc3cc(-c4c[nH]c5ncccc45)cc(Cl)n3)C2)CC1 (stereo not shown) [Example 70, N-(3-{[6-chloro-4-(1H-pyrrolo[2,3-b]pyridin-3-yl)pyridin-2-yl]amino}cyclohexyl)-1-propylpiperidine-4-carboxamide] | < 10 nM |
| CC(C)COc1cnc2[nH]cc(-c3cc(Cl)nc(N[C@H]4CC[C@H](N)CC4)c3)c2c1 [Example 428, trans-N-{6-chloro-4-[5-(2-methylpropoxy)-1H-pyrrolo[2,3-b]pyridin-3-yl]pyridin-2-yl}cyclohexane-1,4-diamine] | < 10 nM |
| Nc1ccc(-c2cnc3[nH]cc(-c4cc(Cl)nc(NC5CCCCC5)c4)c3c2)cn1 [Example 245, 4-[5-(6-aminopyridin-3-yl)-1H-pyrrolo[2,3-b]pyridin-3-yl]-6-chloro-N-cyclohexylpyridin-2-amine] | < 10 nM |
| O=S(=O)(NC1CCC(Nc2cc(-c3c[nH]c4ncccc34)cc(Cl)n2)CC1)c1ccccc1 (stereo not shown) [Example 52, N-(4-{[6-chloro-4-(1H-pyrrolo[2,3-b]pyridin-3-yl)pyridin-2-yl]amino}cyclohexyl)benzenesulfonamide] | < 10 nM |
| O=C1CC[C@@H](C(=O)NC2CCCC(Nc3cc(-c4c[nH]c5ncccc45)cc(Cl)n3)C2)N1 (stereo partly shown) [Example 139, N-(3-{[6-chloro-4-(1H-pyrrolo[2,3-b]pyridin-3-yl)pyridin-2-yl]amino}cyclohexyl)-5-oxoprolinamide] | < 10 nM |
| NC1CCC(N2CCC(Nc3cc(-c4c[nH]c5ncccc45)cc(Cl)n3)CC2)CC1 (stereo not shown) [Example 379, N-[1-(4-aminocyclohexyl)piperidin-4-yl]-6-chloro-4-(1H-pyrrolo[2,3-b]pyridin-3-yl)pyridin-2-amine] | < 10 nM |
| CN1CCCC(C2CCC(N(C)c3cc(-c4c[nH]c5ncccc45)cc(Cl)n3)CC2)C1 (stereo not shown) [Example 372, 6-chloro-N-methyl-N-[4-(1-methylpiperidin-3-yl)cyclohexyl]-4-(1H-pyrrolo[2,3-b]pyridin-3-yl)pyridin-2-amine] | < 10 nM |
| COc1cnc2[nH]cc(-c3cc(Cl)nc(N[C@H]4CC[C@H](NC(=O)CNCCO)CC4)c3)c2c1 [Example 433, N-(trans-4-{[6-chloro-4-(5-methoxy-1H-pyrrolo[2,3-b]pyridin-3-yl)pyridin-2-yl]amino}cyclohexyl)-N~2~-(2-hydroxyethyl)glycinamide] | < 10 nM |
| OCCOCCNc1nc(Cl)cc(-c2c[nH]c3ncccc23)n1 [Example 474, 2-(2-{[4-chloro-6-(1H-pyrrolo[2,3-b]pyridin-3-yl)pyrimidin-2-yl]amino}ethoxy)ethanol] | < 10 nM |
